For assay [1], the target named is JAK1 (recombinant purified GST-tagged catalytic domain) (Homo sapiens (Human), UniProt P23458). Nature of the assay: Jak Biochemical HTRF Assay (JAK1). The following applies: [ATP] 31.8 μM. In outline: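 Compounds in DMSO were pre-equilibrated with enzyme and biotinylated peptide, then ATP was added and the reaction proceeded 120 min at room temperature. EDTA-based stop buffer with detection reagents was added, and after 60 min the time-resolved FRET ratio was read. IC50s came from 4-parameter dose–response fits.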
Background: TR-FRET usually uses a lanthanide donor and a delayed reading to cut background.

In assay [2] the target is JAK2 (recombinant purified GST-tagged catalytic domain) (Homo sapiens (Human), UniProt O60674). The assay is described as follows: Jak Biochemical HTRF Assay (JAK2). Conditions: [ATP] 8.5 μM.

pIC50: −log10 of the molar value.

JAK1 (recombinant purified GST-tagged catalytic domain), sequence (P23458 875-1153): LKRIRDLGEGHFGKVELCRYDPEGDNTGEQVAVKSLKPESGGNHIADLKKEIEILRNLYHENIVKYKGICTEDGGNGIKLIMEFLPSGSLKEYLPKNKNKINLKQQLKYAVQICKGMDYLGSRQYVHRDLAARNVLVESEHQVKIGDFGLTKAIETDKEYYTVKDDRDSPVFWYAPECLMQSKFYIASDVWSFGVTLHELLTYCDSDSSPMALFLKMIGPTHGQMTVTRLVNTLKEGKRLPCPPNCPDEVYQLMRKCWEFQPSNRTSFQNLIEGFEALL
JAK2 (recombinant purified GST-tagged catalytic domain), sequence (O60674 849-1124): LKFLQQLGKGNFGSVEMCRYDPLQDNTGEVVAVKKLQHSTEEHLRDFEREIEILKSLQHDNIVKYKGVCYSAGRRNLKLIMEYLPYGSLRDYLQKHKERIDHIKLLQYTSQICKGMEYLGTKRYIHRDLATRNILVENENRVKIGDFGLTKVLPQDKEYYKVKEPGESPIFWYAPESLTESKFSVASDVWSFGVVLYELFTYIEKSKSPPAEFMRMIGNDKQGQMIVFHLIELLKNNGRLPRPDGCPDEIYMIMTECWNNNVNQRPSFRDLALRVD

In the case of `CC(C)(C)OC(=O)N1CC[C@](CC#N)(n2nc(Nc3ccccc3)c3c(=O)[nH]ccc32)[C@H](F)C1` [Example 5-19, tert-butyl (3R,4R)-4-(cyanomethyl)-3-fluoro-4-[4-oxo-3-(phenyl-amino)-4,5-dihydro-1H-pyrazolo[4,3-c]pyridin-1-yl]piperidine-1-carboxylate], the pIC50 in assay [1] and in assay [2] was 10.10 throughout.
For the compound `N#CC[C@]1(n2nc(Nc3ccc(Cl)cc3)c3c(=O)[nH]ccc32)CC[C@@H](NCC(F)(F)F)CC1` [Example 18-10, Cis 2-(1-(3-((4-chlorophenyl)amino)-4-oxo-4,5-dihydro-1H-pyrazolo[4,3-c]pyridin-1-yl)-4-((2,2,2-trifluoroethyl)amino)cyclohexyl)acetonitrile], the pIC50 was 7.13 in assay [1] and 5.99 in assay [2].
Turning to `CC(C)C(C)(C)S(=O)(=O)c1ccc(Nc2nn([C@]3(CC#N)CCCOC3)c3cc[nH]c(=O)c23)cc1` [Example 5-192, {(3S)-3-[4-oxo-3-({4-[(1,1,2-trimethylpropyl)sulfonyl]phenyl}amino)-4,5-dihydro-1H-pyrazolo[4,3-c]pyridin-1-yl]tetrahydro-2H-pyran-3-yl}acetonitrile], the pIC50 in assay [1] is 9.77; in assay [2], 9.52.
In the same order, the values of `Cc1cc(Nc2nn([C@]3(CC#N)CCOC[C@@H]3F)c3cc[nH]c(=O)c23)ccc1C(=O)N1CCOCC1` (single isomer, unassigned) [Example 5-258, 2-((3R,4R or 3S,4S)-3-fluoro-4-(3-((3-methyl-4-(morpholine-4-carbonyl)phenyl)amino)-4-oxo-4,5-dihydro-1H-pyrazolo[4,3-c]pyridin-1-yl)tetrahydro-2H-pyran-4-yl)acetonitrile] are 10.15 and 10.10.
For `CC(C)(C)OC(=O)N1CCC(CC#N)(n2nc(Nc3ccc4c(c3)CCS4(=O)=O)c3c(=O)[nH]ccc32)CC1` [Example 5-82, tert-butyl 4-(cyanomethyl)-4-(3-((1,1-dioxido-2,3-dihydrobenzo[d]thiophen-5-yl)amino)-4-oxo-4,5-dihydro-1H-pyrazolo[4,3-c]pyridin-1-yl)piperidine-1-carboxylate], the pIC50 in assay [1] was 10.00; in assay [2] it was 9.51.
The corresponding values for `CC(C)(C)OC(=O)[C@@H]1CC[C@@](CC#N)(n2nc(Nc3ccc(Cn4nccn4)cc3)c3c(=O)[nH]ccc32)CO1` [Example 5-97, (2S,5S)-tert-butyl 5-(3-((4-((2H-1,2,3-triazol-2-yl)methyl)phenyl)amino)-4-oxo-4,5-dihydro-1H-pyrazolo[4,3-c]pyridin-1-yl)-5-(cyanomethyl) tetrahydro-2H-pyran-2-carboxylate] are 10.05 and 9.85.
Turning to `C[C@H]1CN(c2ccc3cc(Nc4nn([C@]5(CC#N)CC[C@@H](C(=O)OC(C)(C)C)OC5)c5cc[nH]c(=O)c45)ccc3n2)CCO1` [Example 5-228, (2S,5S)-tert-butyl 5-(cyanomethyl)-5-(3-((2-((S)-2-methylmorpholino)quinolin-6-yl)amino)-4-oxo-4,5-dihydro-1H-pyrazolo[4,3-c]pyridin-1-yl)tetrahydro-2H-pyran-2-carboxylate], the values for the pIC50 in assay [1] and in assay [2] were 9.60 and 8.97, respectively.
Regarding `CNS(=O)(=O)c1ccc(Nc2nn([C@]3(CC#N)CC[C@@H](C(=O)OC(C)(C)C)OC3)c3cc[nH]c(=O)c23)cc1` [Example 5-94, (2S,5S)-tert-butyl 5-(cyanomethyl)-5-(3-((4-(N-methylsulfamoyl)phenyl)amino)-4-oxo-4,5-dihydro-1H-pyrazolo[4,3-c]pyridin-1-yl)tetrahydro-2H-pyran-2-carboxylate], the pIC50 in assay [1] was 10.40; in assay [2], 9.74.
In the same order, the values of `N#CCC1(n2nc(Nc3ccc4c(c3)CN(CC(F)(F)F)C4=O)c3c(=O)[nH]ccc32)CCCC1` [Example 5-138, 2-(1-(4-oxo-3-((1-oxo-2-(2,2,2-trifluoroethyl)isoindolin-5-yl)amino)-4,5-dihydro-1H-pyrazolo[4,3-c]pyridin-1-yl)cyclopentyl)acetonitrile] are 9.51 and 8.82.
As for `CC(C)CN1Cc2cc(Nc3nn(C4(CC#N)CCN(C(=O)OC(C)(C)C)CC4)c4cc[nH]c(=O)c34)ccc2S1(=O)=O` [Example 5-67], the negative logarithm of the IC50 (pIC50) in assay [1] is 9.33; in assay [2], 9.28.
The corresponding values for `CC(C)S(=O)(=O)c1ccc(Nc2nn([C@]3(CC#N)CCCOC3)c3cc[nH]c(=O)c23)cc1` [Example 5-179, {(3S)-3-[3-({4-[(1-methylethyl)sulfonyl]phenyl}amino)-4-oxo-4,5-dihydro-1H-pyrazolo[4,3-c]pyridin-1-yl]tetrahydro-2H-pyran-3-yl}acetonitrile] are 10.10 and 9.59.
On to `Cc1cc(Nc2nn([C@]3(CC#N)CC[C@@H](C(=O)OC(C)(C)C)OC3)c3cc[nH]c(=O)c23)ccc1C(=O)N1C[C@@H]2C[C@H]1CO2` [Example 20-16, (2S,5S)-tert-butyl 5-(3-((4-((1S,4S)-2-oxa-5-azabicyclo[2.2.1]heptane-5-carbonyl)-3-methylphenyl)amino)-4-oxo-4,5-dihydro-1H-pyrazolo[4,3-c]pyridin-1-yl)-5-(cyanomethyl)tetrahydro-2H-pyran-2-carboxylate], for which the pIC50 in assay [1] is 10.00; in assay [2], 9.82.
As for `CN1Cc2cc(Nc3nn([C@]4(CC#N)CC[C@H](N5CC(F)C5)CC4)c4cc[nH]c(=O)c34)ccc2S1(=O)=O` [Example 18-31], the pIC50 in assay [1] was 8.74; in assay [2] it was 7.77.
For `COC(C)(c1ccc(Nc2nn([C@]3(CC#N)CC[C@@H](C(=O)OC(C)(C)C)OC3)c3cc[nH]c(=O)c23)cc1)C(F)(F)F` (single isomer, unassigned) [Example 5-172, (2S,5S)-tert-butyl 5-(cyanomethyl)-5-(4-oxo-3-((4-((S or R)-1,1,1-trifluoro-2-methoxypropan-2-yl)phenyl)amino)-4,5-dihydro-1H-pyrazolo[4,3-c]pyridin-1-yl)tetrahydro-2H-pyran-2-carboxylate], the pIC50 in assay [1] is 9.12; in assay [2], 8.94.
Turning to `CN(C(C)(C)C)S(=O)(=O)c1ccc(Nc2nn(C3(CC#N)CCOCC3)c3cc[nH]c(=O)c23)cc1` [Example 5-253, N-(tert-butyl)-4-((1-(4-(cyanomethyl)tetrahydro-2H-pyran-4-yl)-4-oxo-4,5-dihydro-1H-pyrazolo[4,3-c]pyridin-3-yl)amino)-N-methylbenzenesulfonamide], the pIC50 is 9.14 in assay [1] and 8.85 in assay [2].
Take `CC(C)(C)OC(=O)N1CCC(CC#N)(n2nc(Nc3ccc4c(c3)CN(C3CCN(CC(F)(F)F)CC3)S4(=O)=O)c3c(=O)[nH]ccc32)CC1` [Example 21-15, tert-butyl-4-(cyanomethyl)-4-(3-((1,1-dioxido-2-(1-(2,2,2-trifluoroethyl)piperidin-4-yl)-2,3-dihydrobenzo[d]isothiazol-5-yl)amino)-4-oxo-4,5-dihydro-1H-pyrazolo[4,3-c]pyridin-1-yl)piperidine-1-carboxylate]: the results for the pIC50 in assay [1] and in assay [2] were 9.11 and 9.19, respectively.
For `CC(C)(C)OC(=O)N1CCC(CC#N)(n2nc(Nc3ccc([C@]4(C(F)(F)F)CCCN4)cc3)c3c(=O)[nH]ccc32)CC1` (single isomer, unassigned) [Example 21-19, (S or R)-tert-butyl 4-(cyanomethyl)-4-(4-oxo-3-(4-(2-(trifluoromethyl)pyrrolidin-2-yl)phenylamino)-4,5-dihydropyrazolo[4,3-c]pyridin-1-yl)piperidine-1-carboxylate], the negative logarithm of the IC50 (pIC50) in assay [1] is 9.35; in assay [2] it was 9.30.
Take `N#CC[C@@]1(n2nc(Nc3ccc(S(=O)(=O)N4CCOCC4)cc3)c3c(=O)[nH]ccc32)CCCOC1` [Example 5-204, [(3S)-3-(3-{[4-(morpholin-4-ylsulfonyl)phenyl]amino}-4-oxo-4,5-dihydro-1H-pyrazolo[4,3-c]pyridin-1-yl)tetrahydro-2H-pyran-3-yl]acetonitrile]: the pIC50 is 9.54 in assay [1] and 9.32 in assay [2].
For the compound `COC(=O)N1CCC(CC#N)(n2nc(Nc3ccc4c(c3)CN(CC(C)C)S4(=O)=O)c3c(=O)[nH]ccc32)CC1` [Example 5-73, methyl 4-(cyanomethyl)-4-(3-{[2-(2-methylpropyl)-1,1-dioxo-2,3-dihydro-1,2-benzothiazol-5-yl]amino}-4-oxo-1H,4H,5H-pyrazolo [4,3-c]pyridin-1-yl) piperidine-1-carboxylate], the figures for the pIC50 in assay [1] and in assay [2] were 9.92 and 9.46, respectively.
The corresponding values for `Cc1cc(Nc2nn([C@]3(CC#N)CCOC[C@@H]3F)c3cc[nH]c(=O)c23)ccc1C(=O)N1CCSCC1` (single isomer, unassigned) [Example 5-262, 2-((3R,4R or 3S,4S)-3-fluoro-4-(3-((3-methyl-4-(thiomorpholine-4-carbonyl)phenyl)amino)-4-oxo-4,5-dihydro-1H-pyrazolo[4,3-c]pyridin-1-yl)tetrahydro-2H-pyran-4-yl)acetonitrile] are 10.05 and 10.10.
`N#CC[C@@]1(n2nc(Nc3cc(F)c4nccc(Cl)c4c3)c3c(=O)[nH]ccc32)CCOC1` (single isomer, unassigned) [Example 5-243, [(3R or 3S)-3-{3-[(4-chloro-8-fluoroquinolin-6-yl)amino]-4-oxo-4,5-dihydro-1H-pyrazolo[4,3-c]pyridin-1-yl}tetrahydrofuran-3-yl]acetonitrile]: the pIC50 in assay [1] is 8.18; in assay [2] it was 7.00.
With `CC(O)(c1ccc(Nc2nn([C@@]3(CC#N)CCCC[C@H]3F)c3cc[nH]c(=O)c23)cc1)C(F)(F)F` (single isomer, unassigned) [Example 5-85, {(1R,2R)-2-fluoro-1-[4-oxo-3-({4-[(1S or 1R)-2,2,2-trifluoro-1-hydroxy-1-methylethyl]phenyl}amino)-4,5-dihydro-1H-pyrazolo[4,3-c]pyridin-1-yl]cyclohexyl}acetonitrile], the pIC50 in assay [1] was 10.15; in assay [2], 9.77.

For orientation: pIC50 means the negative decadic logarithm of the IC50, by convention in mol/L.

Source of the values: patent publication US9957264B2 (Merck Sharp & Dohme Corp., priority 2013, dated 2018).
